In ChEMBL document CHEMBL1146065, “Structure-based optimization of azole antifungal agents by CoMFA, CoMSIA, and molecular docking” (2006) one finds MIC80 data, which are given here for twelve compounds.

Values after ≈ are worked out from the molar mass of the structure shown.

In assay [1] the test system is Candida albicans. As to the kind of experiment: Antifungal activity against Candida albicans. Format: functional.
For assay [2], the system named is Candida parapsilosis. As to the kind of experiment: Antifungal activity against Candida parapsilosis. Format: functional. The following applies: Lodderomyces parapsilosis.
Assay [3] concerns Candida tropicalis. As to the kind of experiment: Antifungal activity against Candida tropicalis. Format: functional.
Assay [4] relates to Cryptococcus neoformans. As to the kind of experiment: Antifungal activity against Cryptococcus neoformans. Format: functional.
Assay [5] concerns Aspergillus fumigatus. As to the kind of experiment: Antifungal activity against Aspergillus fumigatus. Format: functional.
The test system of assay [6] is Fonsecaea pedrosoi. The assay is described as follows: Antifungal activity against Fonsecaea pedrosoi. Format: functional.
Assay [7] concerns Trichophyton rubrum. As to the kind of experiment: Antifungal activity against Trichophyton rubrum. Format: functional.
Assay [8] relates to Sporothrix schenckii. As to the kind of experiment: Antifungal activity against Sporothrix schenckii. Format: functional.
Assay [9] has as its system Nannizzia gypsea. As to the kind of experiment: Antifungal activity against Microsporum gypseum. Format: functional.
The test system of assay [10] is Trichophyton violaceum. As to the kind of experiment: Antifungal activity against Trichophyton violaceum. Format: functional.
Assay [11] deals with Microsporum. As to the kind of experiment: Antifungal activity against Microsporum lanosum. Format: functional.
Assay [12] concerns Trichophyton benhamiae. As to the kind of experiment: Antifungal activity against Trichophyton mentagrophytes. Format: functional, Arthroderma benhamiae.
In assay [13] the test system is Epidermophyton floccosum. The assay is described as follows: Antifungal activity against Epidermophyton floccosum. Format: functional.

On to `CN(Cc1ccccc1F)CC(O)(Cn1cncn1)c1ccc(F)cc1F` (stereo unspecified), for which the MIC80 is 0.5 µg/mL (≈ 1.33 µM) in [1]; no more than 0.125 µg/mL in assay [2]; 0.25 µg/mL (≈ 0.664 µM) in assay [3]; 0.5 µg/mL (≈ 1.33 µM) in assay [4]; 8 µg/mL (≈ 21.3 µM) in assay [5]; 1 µg/mL (≈ 2.66 µM) in assay [6]. Further, the MIC80 in [7] was 32 µg/mL (≈ 85 µM); in assay [8], 64 µg/mL (≈ 170 µM); in [9] it was 8 µg/mL (≈ 21.3 µM); in assay [10], 2 µg/mL (≈ 5.31 µM); in [11], 0.5 µg/mL (≈ 1.33 µM); in [12], less than 0.0625 µg/mL. In addition, in assay [13], the MIC80 is less than 0.0625 µg/mL.
In the case of `CN(Cc1ccc(Br)cc1F)CC(O)(Cn1cncn1)c1ccc(F)cc1F` (stereo unspecified), the MIC80 is 0.032 µg/mL (≈ 0.0703 µM) in assay [1]; no more than 0.125 µg/mL in [2]; no more than 0.125 µg/mL in [3]; no more than 0.125 µg/mL in assay [4]; 0.5 µg/mL (≈ 1.1 µM) in assay [5]; no more than 0.125 µg/mL in [6]. Moreover, the MIC80 was 0.25 µg/mL (≈ 0.549 µM) in [7]; 64 µg/mL (≈ 141 µM) in assay [8]; 32 µg/mL (≈ 70.3 µM) in assay [9]; 2 µg/mL (≈ 4.39 µM) in assay [10]; 1 µg/mL (≈ 2.2 µM) in [11]; less than 0.0625 µg/mL in assay [12]. In assay [13], this compound yielded an MIC80 of less than 0.0625 µg/mL.
Consider `CN(Cc1ccc(Cl)c(Cl)c1)CC(O)(Cn1cncn1)c1ccc(F)cc1F` (stereo unspecified), for which the MIC80 in [1] is 0.016 µg/mL (≈ 0.0374 µM); in [2] it was 1 µg/mL (≈ 2.34 µM); in assay [3], no more than 0.125 µg/mL; in assay [4], no more than 0.125 µg/mL; in [5] it was 4 µg/mL (≈ 9.36 µM); in assay [6], no more than 0.125 µg/mL. The MIC80 was no more than 0.125 µg/mL in assay [7]; 32 µg/mL (≈ 74.9 µM) in [8]; 16 µg/mL (≈ 37.4 µM) in assay [9]; 4 µg/mL (≈ 9.36 µM) in assay [10]; 8 µg/mL (≈ 18.7 µM) in assay [11]; less than 0.0625 µg/mL in assay [12]. This compound also had an MIC80 in assay [13] of less than 0.0625 µg/mL.
As for `CN(Cc1ccc(F)cc1Br)CC(O)(Cn1cncn1)c1ccc(F)cc1F` (stereo unspecified), the MIC80 in assay [1] is 0.032 µg/mL (≈ 0.0703 µM); in [2], 0.25 µg/mL (≈ 0.549 µM); in [3], no more than 0.125 µg/mL; in [4], no more than 0.125 µg/mL; in assay [5], 4 µg/mL (≈ 8.79 µM); in [6], 0.25 µg/mL (≈ 0.549 µM). The MIC80 came out at 1 µg/mL (≈ 2.2 µM) in assay [7]; 64 µg/mL (≈ 141 µM) in [8]; 32 µg/mL (≈ 70.3 µM) in assay [9]; 2 µg/mL (≈ 4.39 µM) in assay [10]; 4 µg/mL (≈ 8.79 µM) in [11]; 0.125 µg/mL (≈ 0.275 µM) in assay [12]. Further, the MIC80 in assay [13] is less than 0.0625 µg/mL.
Regarding `CN(Cc1ccc(NC(=O)c2ccc(Cl)cc2)cc1)CC(O)(Cn1cncn1)c1ccc(F)cc1F` (stereo unspecified), the MIC80 in assay [1] was 0.016 µg/mL (≈ 0.0313 µM); in assay [2], 0.031 µg/mL (≈ 0.0606 µM); in assay [3] it was 0.016 µg/mL (≈ 0.0313 µM); in [4], 0.25 µg/mL (≈ 0.488 µM); in assay [5], 32 µg/mL (≈ 62.5 µM); in assay [6], no more than 0.125 µg/mL. The MIC80 is no more than 0.125 µg/mL in [7] and 8 µg/mL (≈ 15.6 µM) in [11].
Turning to `CN(Cc1ccccc1Cl)CC(O)(Cn1cncn1)c1ccc(F)cc1F` (stereo unspecified), the MIC80 in assay [1] is 0.032 µg/mL (≈ 0.0815 µM); in [2], 0.25 µg/mL (≈ 0.636 µM); in assay [3], no more than 0.125 µg/mL; in [4], no more than 0.125 µg/mL; in assay [5] it was 8 µg/mL (≈ 20.4 µM); in assay [6], 0.25 µg/mL (≈ 0.636 µM). Besides, the MIC80 in [7] was no more than 0.125 µg/mL; in assay [8], 32 µg/mL (≈ 81.5 µM); in assay [9] it was 4 µg/mL (≈ 10.2 µM); in [10], 0.5 µg/mL (≈ 1.27 µM); in [11] it was 0.25 µg/mL (≈ 0.636 µM); in assay [12], less than 0.0625 µg/mL. The compound further gave an MIC80 in assay [13] of less than 0.0625 µg/mL.
With `CN(Cc1cc(F)ccc1Br)CC(O)(Cn1cncn1)c1ccc(F)cc1F` (stereo unspecified), the MIC80 in [1] is 0.032 µg/mL (≈ 0.0703 µM); in [2], no more than 0.125 µg/mL; in assay [3] it was no more than 0.125 µg/mL; in [4], no more than 0.125 µg/mL; in [5] it was 4 µg/mL (≈ 8.79 µM); in assay [6], 2 µg/mL (≈ 4.39 µM). For the same compound, the MIC80 in assay [7] was 0.5 µg/mL (≈ 1.1 µM); in assay [8], 64 µg/mL (≈ 141 µM); in [9] it was 32 µg/mL (≈ 70.3 µM); in assay [10] it was 4 µg/mL (≈ 8.79 µM); in [11] it was 8 µg/mL (≈ 17.6 µM); in assay [12], 0.5 µg/mL (≈ 1.1 µM). This compound came in with an MIC80 in [13] of less than 0.0625 µg/mL.
Take `CN(Cc1ccc(I)cc1)CC(O)(Cn1cncn1)c1ccc(F)cc1F` (stereo unspecified): the MIC80 in assay [1] is 0.032 µg/mL (≈ 0.0661 µM); in assay [2], 0.25 µg/mL (≈ 0.516 µM); in assay [3], no more than 0.125 µg/mL; in [4], no more than 0.125 µg/mL; in [5], no more than 0.125 µg/mL; in assay [6], no more than 0.125 µg/mL. For the same compound, the MIC80 in [7] was no more than 0.125 µg/mL; in assay [8] it was 16 µg/mL (≈ 33 µM); in assay [9] it was less than 0.0625 µg/mL; in assay [10], less than 0.0625 µg/mL; in assay [11], less than 0.0625 µg/mL; in assay [12] it was less than 0.0625 µg/mL. The same compound yielded an MIC80 in [13] of less than 0.0625 µg/mL.
As to `CN(Cc1cccc(I)c1)CC(O)(Cn1cncn1)c1ccc(F)cc1F` (stereo unspecified), the MIC80 in assay [1] was 1 µg/mL (≈ 2.06 µM); in [2] it was 1 µg/mL (≈ 2.06 µM); in assay [3], no more than 0.125 µg/mL; in assay [4], no more than 0.125 µg/mL; in assay [5], 8 µg/mL (≈ 16.5 µM); in [6], no more than 0.125 µg/mL. Besides, the MIC80 is no more than 0.125 µg/mL in assay [7]; 64 µg/mL (≈ 132 µM) in assay [8]; 0.125 µg/mL (≈ 0.258 µM) in [9]; less than 0.0625 µg/mL in [10]; less than 0.0625 µg/mL in assay [11]; less than 0.0625 µg/mL in assay [12]. The compound also showed an MIC80 in assay [13] of less than 0.0625 µg/mL.
For the compound `OC(Cn1cncn1)(Cn1cncn1)c1ccc(F)cc1F` [FLUCONAZOLE], the MIC80 was 0.25 µg/mL (≈ 0.816 µM) in assay [1]; 0.5 µg/mL (≈ 1.63 µM) in assay [2]; 0.5 µg/mL (≈ 1.63 µM) in [3]; 16 µg/mL (≈ 52.2 µM) in [4]; 32 µg/mL (≈ 104 µM) in [5]; 64 µg/mL (≈ 209 µM) in [6]. Besides, the MIC80 was 8 µg/mL (≈ 26.1 µM) in [7]; greater than 64 µg/mL in [8]; 8 µg/mL (≈ 26.1 µM) in assay [9]; 32 µg/mL (≈ 104 µM) in [10]; greater than 32 µg/mL in assay [11]; greater than 32 µg/mL in assay [12]. For the same compound, the MIC80 in assay [13] is greater than 32 µg/mL.
Take `CC(=O)N1CCN(c2ccc(OCC3COC(Cn4ccnc4)(c4ccc(Cl)cc4Cl)O3)cc2)CC1` (stereo unspecified) [KETOCONAZOLE]: the MIC80 in assay [1] was 0.0625 µg/mL (≈ 0.118 µM); in assay [2], no more than 0.125 µg/mL; in assay [3], no more than 0.125 µg/mL; in assay [4], no more than 0.125 µg/mL; in assay [5] it was 1 µg/mL (≈ 1.88 µM); in assay [6], no more than 0.125 µg/mL. Further, the MIC80 was no more than 0.125 µg/mL in assay [7]; 0.5 µg/mL (≈ 0.941 µM) in assay [8]; less than 0.0625 µg/mL in [9]; 0.25 µg/mL (≈ 0.47 µM) in [10]; less than 0.0625 µg/mL in assay [11]; less than 0.0625 µg/mL in assay [12]. The MIC80 in [13] is less than 0.0625 µg/mL.
Take `CN(C/C=C/C#CC(C)(C)C)Cc1cccc2ccccc12` [TERBINAFINE]: the MIC80 in assay [1] is 16 µg/mL (≈ 54.9 µM); in assay [2], 16 µg/mL (≈ 54.9 µM); in assay [3], 16 µg/mL (≈ 54.9 µM); in assay [4] it was 4 µg/mL (≈ 13.7 µM); in assay [5], 0.25 µg/mL (≈ 0.858 µM); in assay [6] it was no more than 0.125 µg/mL. The MIC80 in assay [7] is no more than 0.125 µg/mL; in assay [8], 2 µg/mL (≈ 6.86 µM); in assay [9] it was 0.5 µg/mL (≈ 1.72 µM); in assay [10], 4 µg/mL (≈ 13.7 µM); in assay [11] it was 32 µg/mL (≈ 110 µM); in [12], greater than 32 µg/mL. For the same compound, the MIC80 in assay [13] was greater than 32 µg/mL.
